Experimental data reported in patent publication US9783537B2, “3-(4-ethylnylphenyl) pyridopyrimidinone compounds and process for preparation thereof useful as potential anticancer agents” (Council of Scientific & Industrial Research, priority 2013, dated 2017).
Like-named read-outs stand apart in the source and are kept apart here.

Legend:
MALME-3M = assay: SRB 48 h growth assay, Melanoma MALME-3M; format: cell-based, human; conditions: for GI50 / CC50: Homo sapiens; for CC50: read-out: Log10 LC50 (converted)
SK-MEL-28 = assay: SRB 48 h growth assay, Melanoma SK-MEL-28; format: cell-based, human; conditions: SK-MEL-28, Melanoma; for GI50 / CC50: Homo sapiens; for CC50: read-out: Log10 LC50 (converted)
NCI-H460 = assay: SRB 48 h growth assay, Non-small Cell Lung NCI-H460; format: cell-based, human
U251 = assay: SRB 48 h growth assay, CNS U251; format: cell-based, human; conditions: for GI50 / CC50: Homo sapiens; for CC50: U-251, read-out: Log10 LC50 (converted)
HCC-2998 = assay: SRB 48 h growth assay, Colon HCC-2998; format: cell-based, human; conditions: HCC-2998, Colon; for GI50 / CC50: Homo sapiens; for CC50: read-out: Log10 LC50 (converted)
CAKI-1 = assay: SRB 48 h growth assay, Renal CAKI-1; format: cell-based, human; conditions: CAKI-1, Renal; for GI50 / CC50: Homo sapiens; for CC50: read-out: Log10 LC50 (converted)
SK-MEL-2 = assay: SRB 48 h growth assay, Melanoma SK-MEL-2; format: cell-based, human; conditions: SK-MEL-2, Melanoma; for GI50 / CC50: Homo sapiens; for CC50: read-out: Log10 LC50 (converted)
UO-31 = assay: SRB 48 h growth assay, Renal UO-31; format: cell-based, human; conditions: UO-31, Renal; for GI50 / CC50: Homo sapiens; for CC50: read-out: Log10 LC50 (converted)
IGROV1 = assay: SRB 48 h growth assay, Ovarian IGROV1; format: cell-based, human; conditions: for GI50 / CC50: Homo sapiens; for CC50: IGROV-1, read-out: Log10 LC50 (converted)
MOLT-4 = assay: SRB 48 h growth assay, Leukemia MOLT-4; format: cell-based, human; conditions: MOLT-4, Leukemia
SR = assay: SRB 48 h growth assay, Leukemia SR; format: cell-based, human
SN12C = assay: SRB 48 h growth assay, Renal SN12C; format: cell-based, human; conditions: for GI50 / CC50: Homo sapiens; for CC50: read-out: Log10 LC50 (converted)
HT-29 = assay: SRB 48 h growth assay, Colon HT-29; format: cell-based, human; conditions: HT-29, Colon; for GI50 / CC50: Homo sapiens; for CC50: read-out: Log10 LC50 (converted)
[1] = system: eight renal cancer cell line (786-0, A498, ACHN, CAKI-1, SN12C, TK-10, UO-31 and RXF 393); assay: in vitro anticancer activity, renal panel; format: cell-based; conditions: Homo sapiens; eight renal cancer cell lines, exposure at least 48 h; read-out: in vitro anticancer activity, range over panel
[2] = read-out: Growth Inhibition GI50
[3] = read-out: Log10 GI50 (converted)
[4] = Homo sapiens, read-out: Growth Inhibition GI50
[5] = Homo sapiens, read-out: Log10 GI50 (converted)
[6] = Homo sapiens, read-out: Log10 LC50 (converted)
[7] = U-251, read-out: Growth Inhibition GI50
[8] = U-251, read-out: Log10 GI50 (converted)
[9] = IGROV-1, read-out: Growth Inhibition GI50
[10] = IGROV-1, read-out: Log10 GI50 (converted)

SMILES: C#Cc1ccc(-n2c(/C=C/c3ccc4ccccc4c3)nc3ncccc3c2=O)cc1 [4s, (E)-3-(4-Ethynylphenyl)-2-(2-(naphthalen-2-yl)vinyl)pyrido[2,3-d]pyrimidin-4(3H)-one]
- Log10 TGI50 (MALME-3M): >−4.00
- GI50 (MALME-3M; [2]): 4.97 µM
- GI50 (MALME-3M; [3]): 6.31 µM
- CC50 (MALME-3M): > 100 µM
- GI50 (SK-MEL-28; [2]): 4.33 µM
- GI50 (SK-MEL-28; [3]): 4.37 µM
- CC50 (SK-MEL-28): > 100 µM
- Log10 TGI50 (SK-MEL-28): >−4.00
- Log10 TGI50 (NCI-H460): >−4.00
- GI50 (NCI-H460; [4]): 2.88 µM
- GI50 (NCI-H460; [5]): 2.88 µM
- LC50 (NCI-H460; [6]): > 100 µM
- Log10 TGI50 (U251): >−4.00
- GI50 (U251; [7]): 3.69 µM
- GI50 (U251; [8]): 3.72 µM
- CC50 (U251): > 100 µM
- Log10 TGI50 (HCC-2998): −5.30
- GI50 (HCC-2998; [2]): 2.32 µM
- GI50 (HCC-2998; [3]): 2.29 µM
- CC50 (HCC-2998): 5.01 µM
- Log10 TGI50 (CAKI-1): >−4.31
- GI50 (CAKI-1; [2]): 2.98 µM
- GI50 (CAKI-1; [3]): 2.95 µM
- CC50 (CAKI-1): > 100 µM
- GI50 (SK-MEL-2; [2]): 2.41 µM
- GI50 (SK-MEL-2; [3]): 2.4 µM
- CC50 (SK-MEL-2): 6.17 µM
- Log10 TGI50 (SK-MEL-2): −5.21
- GI50 (UO-31; [2]): 3.11 µM
- GI50 (UO-31; [3]): 3.09 µM
- CC50 (UO-31): > 100 µM
- Log10 TGI50 (UO-31): >−4.00
- Log10 TGI50 (IGROV1): >−4.00
- GI50 (IGROV1; [9]): 2.92 µM
- GI50 (IGROV1; [10]): 2.95 µM
- CC50 (IGROV1): > 100 µM
- GI50 (MOLT-4; [4]): 2 µM
- GI50 (MOLT-4; [5]): 2 µM
- CC50 (MOLT-4; [6]): > 100 µM
- Log10 TGI50 (MOLT-4): >−4.00
- Log10 TGI50 (SR): >−4.00
- GI50 (SR; [4]): 1.4 µM
- GI50 (SR; [5]): 1.41 µM
- CC50 (SR; [6]): > 100 µM
- Log10 TGI50 (SN12C): >−4.00
- GI50 (SN12C; [2]): 3.29 µM
- GI50 (SN12C; [3]): 3.31 µM
- CC50 (SN12C): > 100 µM
- Log10 TGI50 (HT-29): >−4.00
- GI50 (HT-29; [2]): 3.26 µM
- GI50 (HT-29; [3]): 3.24 µM
- CC50 (HT-29): > 100 µM
- GI50 [1]: 0.22 to 0.43 µM

SMILES: C#Cc1ccc(-n2c(/C=C/c3cc(OC)c(OC)c(OC)c3)nc3ncccc3c2=O)cc1 [4q, (E)-3-(4-Ethynylphenyl)-2-(3,4,5-trimethoxystyryl)pyrido[2,3-d]pyrimidin-4(3H)-one]
- Log10 TGI50 (MALME-3M): −4.15
- GI50 (MALME-3M; [2]): 9.74 µM
- GI50 (MALME-3M; [3]): 9.77 µM
- CC50 (MALME-3M): > 100 µM
- GI50 (SK-MEL-28; [2]): 34.6 µM
- GI50 (SK-MEL-28; [3]): 34.7 µM
- CC50 (SK-MEL-28): > 100 µM
- Log10 TGI50 (SK-MEL-28): >−4.00
- Log10 TGI50 (NCI-H460): −4.60
- GI50 (NCI-H460; [4]): 4.11 µM
- GI50 (NCI-H460; [5]): 4.07 µM
- Log10 TGI50 (U251): >−4.00
- GI50 (U251; [7]): 9.93 µM
- GI50 (U251; [8]): 10 µM
- CC50 (U251): > 100 µM
- Log10 TGI50 (HCC-2998): >−4.00
- GI50 (HCC-2998; [2]): 27.5 µM
- GI50 (HCC-2998; [3]): 27.5 µM
- CC50 (HCC-2998): > 100 µM
- Log10 TGI50 (CAKI-1): >−4.00
- GI50 (CAKI-1; [2]): 6.07 µM
- GI50 (CAKI-1; [3]): 6.03 µM
- CC50 (CAKI-1): > 100 µM
- GI50 (SK-MEL-2; [2]): 4.54 µM
- GI50 (SK-MEL-2; [3]): 4.57 µM
- CC50 (SK-MEL-2): > 100 µM
- Log10 TGI50 (SK-MEL-2): −4.66
- GI50 (UO-31; [2]): 4.09 µM
- GI50 (UO-31; [3]): 4.07 µM
- CC50 (UO-31): > 100 µM
- Log10 TGI50 (UO-31): >−4.00
- Log10 TGI50 (IGROV1): >−4.00
- GI50 (IGROV1; [9]): 6.08 µM
- GI50 (IGROV1; [10]): 6.03 µM
- CC50 (IGROV1): > 100 µM
- Log10 TGI50 (SN12C): >−4.00
- GI50 (SN12C; [2]): 20.5 µM
- GI50 (SN12C; [3]): 20.4 µM
- CC50 (SN12C): > 100 µM
- Log10 TGI50 (HT-29): −4.82
- GI50 (HT-29; [2]): 3.92 µM
- GI50 (HT-29; [3]): 3.89 µM
- CC50 (HT-29): > 100 µM
